Source: patent EP0377044B1, “PROTECTIVE AGENT FOR RADIATION HAZARD” (MITSUI TOATSU CHEMICALS, Inc., priority 1988, dated 1989)
Square brackets hold non-standard residues; d marks the D form. Peptide text beside a SMILES is read from it. pGlu = O=C1CC[C@@H](C(=O)O)N1

Key:
Type in all cases: in vivo
cancer-carrying mice = experiment: Radiotherapeutic experiments on cancer-carrying mice; details: pre- or post-irradiation administration
[1] = system: animals subjected to whole body irradiation with lethal or sub-lethal doses; experiment: Recovery of hematopoietic dysfunctions and immune responses after whole body irradiation (general description)
Protocol: On the other hand, animals were subjected to whole body irradiation with lethal or sub-lethal doses and changes with the lapse of time in the number of blood cells were measured for given periods of time in order to check the medicament for the promotive effect on the recovery of hematopoietic dysfunctions. Blood cells used as index included red blood cells, reticulocytes, white blood cells such as lymphocytes and neutrophils, platelets, hemoglobins, hematocrit and the like. […] Thus, as is evident from these observations, the medicament of the present invention is believed to act on hematopoietic organs, e.g. bone marrow and spleen, and exert the life span-extending or life-saving effect due to its inhibitory or recovery-promoting effect on hematopoietic dysfunctions, and it is therefore valuable as a preventive and therapeutic agent against radiation damages.

mice = experiment: Whole body X-irradiation, % survival over thirty days (general description)
Protocol: The effect of the radioprotective agent of the present invention is confirmed by the experiments as described below. Thus, mice, rats, guinea pigs or the like mammals were subjected to whole body irradiation, using a X-radiation unit (Shimazu Seisaku-sho, Shin-Ai 250 II), to determine % survival over a period of thirty days. In carrying out these experiments, given amounts of the nonapeptide were administered by different routes of administration, such as intraperitoneal, intravenous, intramuscular, subcutaneous or oral route of administration, either every day or every other day over a given period of time from before or from immediately after the irradiation, to measure the body-weight of the animals and observe whether they were alive or dead.

[2] = system: mice irradiated with 900R X-rays; experiment: Survival of mice after whole body irradiation with 900R X-rays
Protocol: (§1) Male, 10 week-old C3H/He mice were used and groups of 10 - 15 animals each were prepared.
(§2) The mice were subjected to whole body irradiation for 8 minutes using a X-radiation unit (manufactured by Shimazu Seisaku-sho, Shin-Ai 250 II). These animals received, once per day, subcutaneous administration of 100 µg of FTS·CH₃COOH·2H₂O as used in Example 1 for consecutive 14 days. For a pre-administered group, the administration started two days before the irradiation. For a post-administered group, the first administration was effected immediately after the irradiation. As control groups, one group which received only once subcutaneous administration of 1 KE of Picibanil immediately after the irradiation and another group which received every day administration of physiological saline were prepared.
In the same manner as in Experimental Example 1, mice were subcutaneously administered, after X-radiation for 9 minutes, with 100 µg/day of FTS·CH₃COOH·2H₂O, once a day and twelve times in all, i.e. on the zero, 1st, 2nd, 3rd, 4th, 5th, 7th, 8th, 9th, 10th, 11th and 12th days.

[3] = system: radiation-induced cancers in mice; experiment: Development of radiation-induced cancers in irradiated mice; details: administration over a certain period
Wister rats = experiment: Toxicity test, repeated subcutaneous administration to rats
Excerpt: (§3) Thus, the medicament of the present invention is a safe medicament of extremely low toxicity and can be administered for a long period of time.

[4] = system: mice were subjected to 600R X-radiation / 400R X-radiation; experiment: Blood test in X-irradiated mice (600R and 400R); details: for Blood parameters HCT / Blood parameters HGB / Blood parameters PLT / Blood parameters RBC / Blood parameters RET / Blood parameters WBC: pre-administration with 100 µg; for Blood parameters HCT: hematocrit value; for Blood parameters HGB: hemoglobin; for Blood parameters PLT: number of blood platelet; for Blood parameters RBC: number of red blood cells; for Blood parameters RET: number of reticulocytes; for Blood parameters WBC: number of white blood cells
Protocol: Independently of the irraditation carried out in Experimental Example 3 with mice for life/death observation, mice were subjected to 600R X-radiation to conduct a blood test on a dayly basis. Another group of mice was prepared and subjected to 400R X-radiation. Each of the 600R- and 400R-irradiated groups was further divided into two, one `group being for pre-administration with 100 µg of the above mentioned medicament and the other group serving as a control. Samples of blood were taken every day from each mouse and tested for the number white blood cells (WBC), that of red blood cells (RBC), that of reticulocytes (RET), that of blood platelet (PLT), that of hemoglobin (HGB) and hematocrit value (HCT).

[5] = system: mice irradiated with 600R X-rays; experiment: Survival of mice after whole body irradiation with 600R X-rays
Protocol: as §1, §2
In the same manner as in Experimental Examples 1 and 2, mice were irradiated with X-rays for 6 minutes. For a period of consecutive 14 days from 2 days before irradiation, the animals were subcutaneously administered, once a day, with 100 µg/day of FTS·CH₃COOH·2H₂O as medicament.

ddy male mice = experiment: Toxicity test, repeated subcutaneous administration to mice; details: for toxicity: five ddy male mice of 5 weeks old
Excerpt: as §3

C[C@H](NC(=O)[C@@H]1CCC(=O)N1)C(=O)N[C@@H](CCCCN)C(=O)N[C@@H](CO)C(=O)N[C@@H](CCC(N)=O)C(=O)NCC(=O)NCC(=O)N[C@@H](CO)C(=O)N[C@@H](CC(N)=O)C(=O)O [medicament, pGlu-Ala-Lys-Ser-Gln-Gly-Gly-Ser-Asn] ([pGlu]AKSQGGSN-OH)
anti-cancer effect of radiotherapy (cancer-carrying mice): potentiated
immune responses of immunocytes (spleen cells response to Con A, thymus cells reactivity to IL-1) ([1]; irradiated animals, examined every day, versus control group): apparently higher than those for the control group
immunocytes capabilities of humoral factor production (IL-1 by peritoneal macrophage, CSF by spleen cells and peritoneal macrophage) ([1]; irradiated animals, versus control group): superior to the control group
reduction of blood cells due to irradiation ([1]; whole body irradiation with lethal or sub-lethal doses, red blood cells, reticulocytes, white blood cells, platelets, hemoglobins, hematocrit): markedly inhibited
inhibition of body-weight loss (mice; compared with the control group): significant inhibition of body-weight loss
% survival (mice; over a period of thirty days, depending on the dose of radiation, all mice in control group died): 40 - 100%
life span-extending effect (mice; versus control group): significant or marked life span-extending effect
The number of days and survivals after X-radiation 9 (days) ([2]; 900R X-rays, post-administration 100 µg/day s.c., twelve times in all (days 0-5, 7-12), day 9, 15 animals used): 15
The number of days and survivals after X-radiation 10 (days) ([2]; 900R X-rays, post-administration 100 µg/day s.c., twelve times in all (days 0-5, 7-12), day 10, 15 animals used): 13
The number of days and survivals after X-radiation 11 (days) ([2]; 900R X-rays, post-administration 100 µg/day s.c., twelve times in all (days 0-5, 7-12), day 11, 15 animals used): 12
The number of days and survivals after X-radiation 12 (days) ([2]; 900R X-rays, post-administration 100 µg/day s.c., twelve times in all (days 0-5, 7-12), day 12, 15 animals used): 12
The number of days and survivals after X-radiation 13 (days) ([2]; 900R X-rays, post-administration 100 µg/day s.c., twelve times in all (days 0-5, 7-12), day 13, 15 animals used): 7
The number of days and survivals after X-radiation 14 (days) ([2]; 900R X-rays, post-administration 100 µg/day s.c., twelve times in all (days 0-5, 7-12), day 14, 15 animals used): 4
The number of days and survivals after X-radiation 15 (days) ([2]; 900R X-rays, post-administration 100 µg/day s.c., twelve times in all (days 0-5, 7-12), day 15, 15 animals used): 3
The number of days and survivals after X-radiation 16 (days) ([2]; 900R X-rays, post-administration 100 µg/day s.c., twelve times in all (days 0-5, 7-12), day 16, 15 animals used): 2
The number of days and survivals after X-radiation 18 (days) ([2]; 900R X-rays, post-administration 100 µg/day s.c., twelve times in all (days 0-5, 7-12), day 18, 15 animals used): 2
The number of days and survivals after X-radiation 20 (days) ([2]; 900R X-rays, post-administration 100 µg/day s.c., twelve times in all (days 0-5, 7-12), day 20, 15 animals used): 2
The number of days and survivals after X-radiation 21 (days) ([2]; 900R X-rays, post-administration 100 µg/day s.c., twelve times in all (days 0-5, 7-12), day 21, 15 animals used): 1
The number of days and survivals after X-radiation 23 (days) ([2]; 900R X-rays, post-administration 100 µg/day s.c., twelve times in all (days 0-5, 7-12), day 23, 15 animals used): 0
life span extension ([2]; 900R, 100 µg/day s.c. twelve times after X-radiation, summary of Table 2): exhibited a life span extension
development of radiation-induced cancers [3]: inhibits the development of radiation-induced cancers in mice
toxicity (external behavior observation, biochemical diagnosis of sera, pathological anatomy) (Wister rats; 30 mg/kg subcutaneously every day for consecutive 21 days, rats): no abnormal symptom was found in external behavior observation and biochemical diagnosis of sera and in a result of pathological anatomy
toxicity (Wister rats; 30 mg/kg subcutaneously for consecutive 21 days, ten Wister rats of 5 weeks old): No toxicity was observed
Blood parameters HCT ([4]; 400R X-rays, on the 14th day): 29.8±1.4
Blood parameters HGB ([4]; 400R X-rays, on the 14th day): 8.8±0.3
Blood parameters PLT ([4]; 400R X-rays, on the 14th day): 240.6±14.3
Blood parameters RBC ([4]; 400R X-rays, on the 14th day): 522.7±21.7
Blood parameters RET ([4]; 400R X-rays, on the 14th day): 30.0±6.5
Blood parameters WBC ([4]; 400R X-rays, on the 14th day): 8.7±0.4
Blood parameters HCT ([4]; 600R X-rays, on the 7th day): 39.1±5.5
Blood parameters HGB ([4]; 600R X-rays, on the 7th day): 12.3±1.9
Blood parameters PLT ([4]; 600R X-rays, on the 7th day): 372.0±174.7
Blood parameters RBC ([4]; 600R X-rays, on the 7th day): 691.8±96.1
Blood parameters RET ([4]; 600R X-rays, on the 7th day): 24.6±10.9
Blood parameters WBC ([4]; 600R X-rays, on the 7th day): 34.2±25.2
blood parameters (WBC, RBC, RET, PLT, HGB, HCT) ([4]; 600R or 400R X-radiation, pre-administration 100 µg, compared with control group, summary of Table 4): apparently improved
animals survived ([5]; in 19 days, 100 µg/day s.c. 14 days from 2 days before irradiation, control four out of ten): ten out of ten
The number of days and survivals after X-radiation 8 (days) ([5]; pre-administration 100 µg/day s.c., 14 days from 2 days before irradiation, day 8, 10 animals used): 10
The number of days and survivals after X-radiation 9 (days) ([5]; pre-administration 100 µg/day s.c., 14 days from 2 days before irradiation, day 9, 10 animals used): 10
The number of days and survivals after X-radiation 10 (days) ([5]; pre-administration 100 µg/day s.c., 14 days from 2 days before irradiation, day 10, 10 animals used): 10
The number of days and survivals after X-radiation 11 (days) ([5]; pre-administration 100 µg/day s.c., 14 days from 2 days before irradiation, day 11, 10 animals used): 10
The number of days and survivals after X-radiation 12 (days) ([5]; pre-administration 100 µg/day s.c., 14 days from 2 days before irradiation, day 12, 10 animals used): 10
The number of days and survivals after X-radiation 13 (days) ([5]; pre-administration 100 µg/day s.c., 14 days from 2 days before irradiation, day 13, 10 animals used): 10
The number of days and survivals after X-radiation 14 (days) ([5]; pre-administration 100 µg/day s.c., 14 days from 2 days before irradiation, day 14, 10 animals used): 10
The number of days and survivals after X-radiation 15 (days) ([5]; pre-administration 100 µg/day s.c., 14 days from 2 days before irradiation, day 15, 10 animals used): 10
The number of days and survivals after X-radiation 16 (days) ([5]; pre-administration 100 µg/day s.c., 14 days from 2 days before irradiation, day 16, 10 animals used): 10
The number of days and survivals after X-radiation 17 (days) ([5]; pre-administration 100 µg/day s.c., 14 days from 2 days before irradiation, day 17, 10 animals used): 10
The number of days and survivals after X-radiation 18 (days) ([5]; pre-administration 100 µg/day s.c., 14 days from 2 days before irradiation, day 18, 10 animals used): 10
The number of days and survivals after X-radiation 19 (days) ([5]; pre-administration 100 µg/day s.c., 14 days from 2 days before irradiation, day 19, 10 animals used): 10
The number of days and survivals after X-radiation 30 (days) ([5]; pre-administration 100 µg/day s.c., 14 days from 2 days before irradiation, day 30, 10 animals used): 10
toxicity (ddy male mice; 50 mg/kg subcutaneously for consecutive 14 days): No toxicity was observed
toxicity (external check) (ddy male mice; 100 mg/kg subcutaneously every day for consecutive 14 days, mice): no abnormal symptom was found by external check
toxicity (ddy male mice; 100 mg/kg subcutaneously for consecutive 14 days): No toxicity was observed
